According to ChEMBL document CHEMBL2203010, “The discovery of tropane-derived CCR5 receptor antagonists” (Chem Biol Drug Des, 2006):

How the values were obtained:
[1] = molecular target: T1, Voltage-gated inwardly rectifying potassium channel KCNH2 (Homo sapiens, UniProt Q12809); assay: Inhibition of human ERG
[2] = test system: Human immunodeficiency virus 1; assay: Antiviral activity against HIV1 BaL infected in peripheral blood lymphocytes assessed as inhibition of viral replication; format: functional; settings: Human immunodeficiency virus 1, BaL
[3] = molecular target: C-C chemokine receptor type 5 (Homo sapiens, UniProt P51681); assay: Displacement of [125I]MIP-1beta from CCR5 receptor
[4] = molecular target: T1, Voltage-gated inwardly rectifying potassium channel KCNH2; assay: Displacement of [3H]dofetilide from human ERG
[5] = Dissociation constant, pKa of the compound; format: physicochemical
[6] = test system: Human immunodeficiency virus 1; assay: Antiviral activity against CCR5-tropic HIV1 clade B infected in peripheral blood lymphocytes assessed as inhibition of viral replication; format: functional, organism-based; settings: Human immunodeficiency virus 1, clade B
[7] = test system: Human immunodeficiency virus 1; assay: Antiviral activity against CCR5-tropic HIV1 clade A infected in peripheral blood lymphocytes assessed as inhibition of viral replication; format: functional, organism-based; settings: Human immunodeficiency virus 1, clade A
[8] = molecular target: hERG (KCNH2) (Homo sapiens, UniProt Q12809); assay: Inhibition of human ERG at 1 uM
Chain of hERG (KCNH2) (Q12809 whole entry): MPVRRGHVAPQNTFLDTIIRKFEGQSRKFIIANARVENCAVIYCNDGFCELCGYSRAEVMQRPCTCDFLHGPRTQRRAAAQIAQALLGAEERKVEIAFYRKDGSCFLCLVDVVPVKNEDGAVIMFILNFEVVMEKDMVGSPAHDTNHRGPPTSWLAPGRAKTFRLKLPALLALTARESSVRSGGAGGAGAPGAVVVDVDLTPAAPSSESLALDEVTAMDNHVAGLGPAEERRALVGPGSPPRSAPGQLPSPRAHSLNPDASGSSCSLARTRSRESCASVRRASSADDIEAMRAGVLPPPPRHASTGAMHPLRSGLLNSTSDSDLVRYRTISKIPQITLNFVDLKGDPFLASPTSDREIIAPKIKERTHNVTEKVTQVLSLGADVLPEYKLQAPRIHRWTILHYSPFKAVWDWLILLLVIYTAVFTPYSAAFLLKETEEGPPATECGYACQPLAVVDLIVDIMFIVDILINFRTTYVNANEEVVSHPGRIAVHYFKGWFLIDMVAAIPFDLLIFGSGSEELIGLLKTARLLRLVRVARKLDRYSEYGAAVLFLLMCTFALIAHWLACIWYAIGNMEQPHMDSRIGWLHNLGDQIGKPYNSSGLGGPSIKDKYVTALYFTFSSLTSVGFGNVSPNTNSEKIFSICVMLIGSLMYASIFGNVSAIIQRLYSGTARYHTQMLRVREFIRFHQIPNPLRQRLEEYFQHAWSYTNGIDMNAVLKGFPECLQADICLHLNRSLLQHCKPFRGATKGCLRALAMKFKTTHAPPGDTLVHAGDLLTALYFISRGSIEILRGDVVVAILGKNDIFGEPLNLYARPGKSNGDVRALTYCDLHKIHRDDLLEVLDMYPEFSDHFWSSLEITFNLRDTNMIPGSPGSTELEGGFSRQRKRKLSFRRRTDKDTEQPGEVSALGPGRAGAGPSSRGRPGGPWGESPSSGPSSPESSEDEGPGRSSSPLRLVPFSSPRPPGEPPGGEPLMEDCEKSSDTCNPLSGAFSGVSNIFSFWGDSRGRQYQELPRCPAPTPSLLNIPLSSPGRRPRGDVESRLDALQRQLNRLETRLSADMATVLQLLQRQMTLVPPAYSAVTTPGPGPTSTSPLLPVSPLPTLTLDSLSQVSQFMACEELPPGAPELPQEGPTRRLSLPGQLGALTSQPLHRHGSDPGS

Chain of C-C chemokine receptor type 5 (P51681 whole entry): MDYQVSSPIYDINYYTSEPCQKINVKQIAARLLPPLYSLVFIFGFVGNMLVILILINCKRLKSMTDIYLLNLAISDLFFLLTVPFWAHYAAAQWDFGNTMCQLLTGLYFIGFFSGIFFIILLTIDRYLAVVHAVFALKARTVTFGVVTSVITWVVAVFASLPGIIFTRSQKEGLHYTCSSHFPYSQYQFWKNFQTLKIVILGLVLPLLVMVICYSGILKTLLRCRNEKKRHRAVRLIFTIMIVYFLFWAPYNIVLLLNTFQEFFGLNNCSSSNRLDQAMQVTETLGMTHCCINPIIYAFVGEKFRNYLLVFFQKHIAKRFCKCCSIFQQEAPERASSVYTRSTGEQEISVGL
T1 sequence (Q12809 whole entry): as the sequence (Q12809 whole entry) above

Row | IC90 [2] [nM] | IC50 [3] [nM] | SMILES | inhibition (INH) [1] | Ki [4] [nM] | pKa [5] | IC50 [6] [nM] | IC50 [7] [nM] | inhibition at 1 µM [8] [%]
1 | > 1000 | 17 | Cc1nc2ccccc2n1C1[C@H]2CN(CC[C@H](NC(=O)C3CCC3)c3ccccc3)C[C@@H]12 (some centres undefined) | Active | – | – | – | – | –
2 | – | > 1000 | Cc1nc2ccccc2n1C1CN(CC[C@H](NC(=O)C2CCC2)c2ccccc2)C1 | Active | – | – | – | – | –
3 | 53 | 8 | Cc1nc2ccccc2n1[C@@H]1C[C@@H](C)N(CC[C@H](NC(=O)C2CCC2)c2ccccc2)[C@@H](C)C1 | Active | – | – | – | – | –
4 | 73 | 20 | Cc1nc2ccccc2n1C1CCN(CC[C@H](NC(=O)C2CCC2)c2ccccc2)CC1 | – | – | – | – | – | –
5 | 140 | 1.2 | Cc1nc2ccccc2n1C1(C)CCN(CC[C@H](NC(=O)C2CCC2)c2ccccc2)CC1 | Active | – | – | – | – | –

Row | SMILES | IC90 [2] [nM] | IC50 [3] [nM] | inhibition (INH) [1] | Ki [4] [nM] | pKa [5] | IC50 [6] [nM] | IC50 [7] [nM] | inhibition at 1 µM [8] [%]
6 | Cc1nc2ccccc2n1[C@@H]1C[C@H]2CC[C@@H](C1)N2CC[C@H](NC(=O)C1CCC1)c1ccccc1 | 13 | – | Active | – | – | – | – | –
7 | Cc1nc2ccccc2n1[C@@H]1C[C@H]2CSC[C@@H](C1)N2CC[C@H](NC(=O)C1CCC1)c1ccccc1 | – | 21.5 | Active | – | – | – | – | –
8 | Cc1nc2ccccc2n1[C@@H]1C[C@H]2COC[C@@H](C1)N2CC[C@H](NC(=O)C1CCC1)c1ccccc1 | – | 9 | Active | 42 | 6 | – | – | –
9 | Cc1nc2ccccc2n1[C@H]1C[C@H]2CC[C@@H](C1)N2CC[C@H](NC(=O)C1CCC1)c1ccccc1 | 3 | – | Active | – | 7.8 | 0.9 | 0.9 | 99
10 | Cc1nc2ccccc2n1[C@H]1C[C@H]2COC[C@@H](C1)N2CC[C@H](NC(=O)C1CCC1)c1ccccc1 | – | 39.7 | Active | – | – | – | – | –
